Patent publication US9796711B2, “Substituted pyrazolo[3,4-b]pyridin-6-carboxylic acids and method of use” (AbbVie S.àr.l., priority 2015, dated 2017)

How the values were obtained:
ΔF508-CFTR [1] = molecular target: T1, ΔF508-CFTR (Homo sapiens, UniProt P13569, DEL508-508); experiment: CFTR cell surface levels using HRP-tagged ΔF508-CFTR expressing CFBE cells, in the presence of a co-corrector; assay type: cell-based
T1 construct: host or cells: CFBE41o-, doxycycline-inducible
Outline: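 Cells were seeded with 0.5 μg/mL doxycycline and held 68 h at 37 °C. Test compounds plus 3 μM co-corrector (final 0.1% DMSO) were then added for 20 h at 33 °C. Washed cells received HRP substrate, and luminescence was normalized between DMSO and 3 μM co-corrector controls.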

ΔF508-CFTR [2] = molecular target: T1, ΔF508-CFTR; experiment: CFTR cell surface levels using HRP-tagged ΔF508-CFTR expressing CFBE cells, intrinsic corrector capacity; assay type: cell-based
Outline: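 Here the cells express ΔF508-CFTR with horseradish peroxidase inserted in extracellular loop 4, so only rescued channel at the surface gives luminescent signal. Compounds act on their own, 20 h at the reduced temperature of 33 °C; values are percent activity relative to DMSO and a 3 μM corrector.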

[3] = HRP-tagged ΔF508-CFTR expressing CFBE cells, in the presence of 3 μM co-corrector
[4] = HRP-tagged ΔF508-CFTR expressing CFBE cells, in the presence of 3 μM co-corrector, read-out: EC50
[5] = HRP-tagged ΔF508-CFTR expressing CFBE cells, intrinsic corrector capacity (no co-corrector), 33° C., 20 hours
[6] = HRP-tagged ΔF508-CFTR expressing CFBE cells, intrinsic corrector capacity (no co-corrector), 33° C., 20 hours, read-out: EC50

T1 sequence (P13569 with tags, fused parts or gaps DEL508-508): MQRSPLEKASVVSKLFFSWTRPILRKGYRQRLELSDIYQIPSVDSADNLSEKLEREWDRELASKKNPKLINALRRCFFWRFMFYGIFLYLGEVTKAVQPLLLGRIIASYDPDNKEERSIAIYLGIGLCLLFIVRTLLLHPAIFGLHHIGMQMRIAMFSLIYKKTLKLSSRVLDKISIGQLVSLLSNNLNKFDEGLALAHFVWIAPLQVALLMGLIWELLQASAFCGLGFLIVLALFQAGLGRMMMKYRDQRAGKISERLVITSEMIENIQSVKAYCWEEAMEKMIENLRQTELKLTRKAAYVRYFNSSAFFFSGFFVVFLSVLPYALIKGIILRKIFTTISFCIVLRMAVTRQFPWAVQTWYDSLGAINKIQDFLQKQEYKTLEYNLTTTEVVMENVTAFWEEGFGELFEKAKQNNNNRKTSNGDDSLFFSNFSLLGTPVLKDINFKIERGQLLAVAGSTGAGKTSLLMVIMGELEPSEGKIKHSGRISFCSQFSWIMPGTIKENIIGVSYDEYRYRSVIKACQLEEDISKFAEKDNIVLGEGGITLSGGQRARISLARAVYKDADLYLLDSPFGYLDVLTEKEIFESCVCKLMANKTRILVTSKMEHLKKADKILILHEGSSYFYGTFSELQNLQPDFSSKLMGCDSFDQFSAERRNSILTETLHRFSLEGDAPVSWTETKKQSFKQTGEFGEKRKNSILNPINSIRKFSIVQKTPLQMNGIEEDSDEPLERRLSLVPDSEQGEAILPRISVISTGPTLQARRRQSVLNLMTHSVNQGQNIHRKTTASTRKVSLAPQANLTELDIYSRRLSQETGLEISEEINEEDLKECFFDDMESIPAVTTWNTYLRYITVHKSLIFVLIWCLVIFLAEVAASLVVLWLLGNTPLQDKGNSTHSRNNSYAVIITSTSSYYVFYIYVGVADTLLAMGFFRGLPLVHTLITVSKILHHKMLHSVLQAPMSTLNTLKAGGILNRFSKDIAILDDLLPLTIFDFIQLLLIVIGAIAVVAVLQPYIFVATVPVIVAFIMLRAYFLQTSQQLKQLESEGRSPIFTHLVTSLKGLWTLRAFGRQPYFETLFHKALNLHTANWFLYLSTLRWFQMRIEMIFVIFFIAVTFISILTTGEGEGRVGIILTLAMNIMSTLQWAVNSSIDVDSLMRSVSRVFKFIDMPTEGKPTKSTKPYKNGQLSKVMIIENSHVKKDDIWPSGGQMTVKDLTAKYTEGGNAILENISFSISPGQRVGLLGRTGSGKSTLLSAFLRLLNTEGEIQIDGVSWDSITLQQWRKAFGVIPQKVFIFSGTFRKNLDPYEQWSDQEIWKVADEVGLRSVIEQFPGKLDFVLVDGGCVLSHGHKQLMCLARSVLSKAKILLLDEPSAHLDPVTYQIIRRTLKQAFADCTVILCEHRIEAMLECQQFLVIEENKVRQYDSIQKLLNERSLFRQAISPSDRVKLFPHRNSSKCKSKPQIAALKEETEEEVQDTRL

Row | Structure (SMILES) | % Activation (ΔF508-CFTR [1]; [3]) [%] | EC50 (ΔF508-CFTR [1]; [4]) [nM] | % Activation (ΔF508-CFTR [2]; [5]) [%] | EC50 (ΔF508-CFTR [2]; [6]) [nM] | EC50 (ΔF508-CFTR [1]) [nM] | EC50 (ΔF508-CFTR [2]) [nM]
1 | O=C(O)c1cc(OC2CCCCCCC2)c2c(C3CCC3)nn(-c3ccccc3)c2n1 [compound 649, 3-cyclobutyl-4-(cyclooctyloxy)-1-phenyl-1H-pyrazolo[3,4-b]pyridine-6-carboxylic acid] | 314.65 | 225 | 107.6 | 432 | – | –
2 | CN1CC[C@@H](Oc2cc(C(=O)O)nc3c2c(C2CCC2)nn3-c2ccccc2)C1 [compound 650, 3-cyclobutyl-4-{[(3R)-1-methylpyrrolidin-3-yl]oxy}-1-phenyl-1H-pyrazolo[3,4-b]pyridine-6-carboxylic acid] | 193.6 | 3330 | 45.88 | 3330 | – | –
3 | CN1CC[C@H](Oc2cc(C(=O)O)nc3c2c(C2CCC2)nn3-c2ccccc2)C1 [compound 651, 3-cyclobutyl-4-{[(3S)-1-methylpyrrolidin-3-yl]oxy}-1-phenyl-1H-pyrazolo[3,4-b]pyridine-6-carboxylic acid] | 187.9 | 2200 | 54.22 | 3330 | – | –
4 | CC(C)c1nn(-c2ccc(F)cc2)c2nc(C(=O)O)cc(OCC3(C)CC(F)(F)C3)c12 [compound 652, 4-[(3,3-difluoro-1-methylcyclobutyl)methoxy]-1-(4-fluorophenyl)-3-(propan-2-yl)-1H-pyrazolo[3,4-b]pyridine-6-carboxylic acid] | 310.6 | 203 | 130.6 | 334 | – | –
5 | COCC(COC)Oc1cc(C(=O)O)nc2c1c(C(C)C)nn2-c1ccc(F)cc1 [compound 654, 4-[(1,3-dimethoxypropan-2-yl)oxy]-1-(4-fluorophenyl)-3-(propan-2-yl)-1H-pyrazolo[3,4-b]pyridine-6-carboxylic acid] | 245.5 | 3330 | 66.19 | 3330 | – | –
6 | O=C(O)c1cc(NC[C@@H]2CCCO2)c2c(C3CCC3)nn(-c3ccccc3)c2n1 [compound 655, 3-cyclobutyl-4-({[(2S)-oxolan-2-yl]methyl}amino)-1-phenyl-1H-pyrazolo[3,4-b]pyridine-6-carboxylic acid] | 340.2 | – | 165.6 | – | 1130 | 3100
7 | CC(C)c1nn(-c2ccc(F)cc2)c2nc(C(=O)O)cc(N3CCC(C4CCN(C)CC4)CC3)c12 [compound 661, 1-(4-fluorophenyl)-4-(1′-methyl [4,4′-bipiperidin]-1-yl)-3-(propan-2-yl)-1H-pyrazolo[3,4-b]pyridine-6-carboxylic acid] | 522.3 | 227 | 315 | 565 | – | –
8 | CC(C)(C)OC(=O)NC[C@@H]1CCN(c2cc(C(=O)O)nc3c2c(C2CCC2)nn3-c2ccccc2)C1 [compound 671, 4-[(3S)-3-{[(tert-butoxycarbonyl)amino]methyl}pyrrolidin-1-yl]-3-cyclobutyl-1-phenyl-1H-pyrazolo[3,4-b]pyridine-6-carboxylic acid] | 357.4 | – | 190.1 | – | 943 | 1610
9 | CC(C)(C)OC(=O)NC[C@H]1CCN(c2cc(C(=O)O)nc3c2c(C2CCC2)nn3-c2ccccc2)C1 [compound 672, 4-[(3R)-3-{[(tert-butoxycarbonyl)amino]methyl}pyrrolidin-1-yl]-3-cyclobutyl-1-phenyl-1H-pyrazolo[3,4-b]pyridine-6-carboxylic acid] | 343.15 | – | 141.6 | – | 553 | 748
10 | CN(C[C@@H]1CCN(c2cc(C(=O)O)nc3c2c(C2CCC2)nn3-c2ccccc2)C1)C(=O)OC(C)(C)C [compound 674, 4-[(3R)-3-{[(tert-butoxycarbonyl)(methyl)amino]methyl}pyrrolidin-1-yl]-3-cyclobutyl-1-phenyl-1H-pyrazolo[3,4-b]pyridine-6-carboxylic acid] | 323.85 | 380 | 158.5 | 521 | – | –
11 | CN(C[C@H]1CCN(c2cc(C(=O)O)nc3c2c(C2CCC2)nn3-c2ccccc2)C1)C(=O)OC(C)(C)C [compound 675, 4-[(3S)-3-{[(tert-butoxycarbonyl)(methyl)amino]methyl}pyrrolidin-1-yl]-3-cyclobutyl-1-phenyl-1H-pyrazolo[3,4-b]pyridine-6-carboxylic acid] | 303.65 | 1050 | 118.8 | 659 | – | –
12 | CNC[C@@H]1CCN(c2cc(C(=O)O)nc3c2c(C2CCC2)nn3-c2ccccc2)C1 [compound 676, 3-cyclobutyl-4-{(3S)-3-[(methylamino)methyl]pyrrolidin-1-yl}-1-phenyl-1H-pyrazolo[3,4-b]pyridine-6-carboxylic acid] | 164.55 | 892 | 35.03 | 5000 | – | –
13 | COCC1CCN(c2cc(C(=O)O)nc3c2c(C(C)C)nn3-c2cc(C)nc(C)c2)CC1 [compound 677, 1-(2,6-dimethylpyridin-4-yl)-4-[4-(methoxymethyl)piperidin-1-yl]-3-(propan-2-yl)-1H-pyrazolo[3,4-b]pyridine-6-carboxylic acid] | 260.45 | 6550 | 67.38 | 1570 | – | –
14 | COCC1CCN(c2cc(C(=O)O)nc3c2c(C2CCC2)nn3-c2ccnc(OC)c2)CC1 [compound 678, 3-cyclobutyl-4-[4-(methoxymethyl)piperidin-1-yl]-1-(2-methoxypyridin-4-yl)-1H-pyrazolo[3,4-b]pyridine-6-carboxylic acid] | 373.3 | 91.8 | 181.5 | 230 | – | –
15 | O=C(O)c1cc(N2CCN(CC3CCCO3)CC2)c2c(C3CCC3)nn(-c3ccccc3)c2n1 (stereo not drawn) [compound 681, 3-cyclobutyl-4-{4-[(oxolan-2-yl)methyl]piperazin-1-yl}-1-phenyl-1H-pyrazolo[3,4-b]pyridine-6-carboxylic acid] | 373.05 | 197 | 220.95 | 408 | – | –
16 | COCC(C)N1CCN(c2cc(C(=O)O)nc3c2c(C2CCC2)nn3-c2ccccc2)CC1 (stereo not drawn) [compound 682, 3-cyclobutyl-4-[4-(1-methoxypropan-2-yl)piperazin-1-yl]-1-phenyl-1H-pyrazolo[3,4-b]pyridine-6-carboxylic acid] | 368.9 | 116 | 172.9 | 180 | – | –
17 | O=C(O)c1cc(N2CCN(CC3OCCO3)CC2)c2c(C3CCC3)nn(-c3ccccc3)c2n1 [compound 684, 3-cyclobutyl-4-{4-[(1,3-dioxolan-2-yl)methyl]piperazin-1-yl}-1-phenyl-1H-pyrazolo[3,4-b]pyridine-6-carboxylic acid] | 384.65 | 236 | 230.2 | 380 | – | –
18 | COCCOC1CCN(c2cc(C(=O)O)nc3c2c(C2CCC2)nn3-c2ccccc2)CC1 [compound 685, 3-cyclobutyl-4-[4-(2-methoxyethoxy)piperidin-1-yl]-1-phenyl-1H-pyrazolo[3,4-b]pyridine-6-carboxylic acid] | 510.3 | 245 | 260.5 | 164 | – | –
